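Tested at 5 concentrations; 48 h exposure; 96-well plates; endpoints linearly interpolated, else capped at highest concentration. GI50 is the concentration that inhibits growth by half. At the TGI there is no net growth.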 Calls of active or inactive are those of the source. No stated cut-off is given here; in the data, active means GI50 below about 0.43 µM; inactive means the rest.
Legend:
Assay in all cases: NCI anticancer screen, dose series, 48 h
CAKI-1 renal = tested on: CAKI-1 renal
HL-60(TB) leukemia = tested on: HL-60(TB) leukemia
MALME-3M melanoma = tested on: MALME-3M melanoma
OVCAR-3 ovarian = tested on: OVCAR-3 ovarian
OVCAR-8 ovarian = tested on: OVCAR-8 ovarian
SW-620 colon = tested on: SW-620 colon
UACC-257 melanoma = tested on: UACC-257 melanoma
UO-31 renal = tested on: UO-31 renal
MCF7 breast = tested on: MCF7 breast

SMILES | TGI (CAKI-1 renal) | TGI (HL-60(TB) leukemia) | TGI (MALME-3M melanoma) | TGI (OVCAR-3 ovarian) | TGI (OVCAR-8 ovarian) | TGI (SW-620 colon) | TGI (UACC-257 melanoma) | TGI (UO-31 renal) | TGI (MCF7 breast) | GI50 (OVCAR-3 ovarian) | GI50 (OVCAR-8 ovarian) | GI50 (UACC-257 melanoma) | GI50 (UO-31 renal) | GI50 (HL-60(TB) leukemia) | outcome (MALME-3M melanoma) | GI50 (MCF7 breast) | outcome (SW-620 colon) | outcome (UACC-257 melanoma) | outcome (UO-31 renal)
CC(C)(C)OC(=O)n1c(Cl)c(C=O)c2ccccc21 | 35.4 µM | > 100 µM | 39.9 µM | 40.8 µM | > 100 µM | > 100 µM | 67.3 µM | 41.3 µM |  |  |  |  |  |  |  |  |  |  | 
OC1(c2ccc(Cl)cc2)c2c(c3ccccc3c3ccccc23)C2=NCCN21 (stereo not drawn) | 68.8 µM | > 100 µM | 40.1 µM | 62.1 µM | 28.5 µM | 32.8 µM | 49.7 µM | 24.6 µM | 41.7 µM |  |  |  |  |  |  |  |  |  | 
COc1ccc(N2N=NN(C(C)C)/C2=C(/Cl)c2nnnn2-c2ccc(OC)cc2)cc1 | 3.16 µM | 5.15 µM | 24.7 µM | 24.5 µM | 18 µM | 3.96 µM | 28.9 µM | 10.8 µM | 22.6 µM |  |  |  |  |  |  |  |  |  | 
Cn1c(COC(=O)NC2CCCCC2)c(COC(=O)NC2CCCCC2)c2ccc3cc(C=O)ccc3c21 | > 100 µM | > 100 µM | > 100 µM | > 100 µM | > 100 µM | > 100 µM | > 100 µM | > 100 µM | > 100 µM |  |  |  |  |  |  |  |  |  | 
Nc1ccccc1OCCCOc1ccccc1N | > 100 µM | > 100 µM | > 100 µM | > 100 µM | > 100 µM | > 100 µM | > 100 µM | > 100 µM | > 100 µM |  |  |  |  |  |  |  |  |  | 
CN(C)CC1CCCc2ccccc2C1=O (stereo not drawn) | 6.25 µM |  | 3.62 µM | 3.57 µM | 4.29 µM |  | 18.9 µM | 3.45 µM | 0.644 µM |  |  |  |  |  |  |  |  |  | 
COc1ccc(C2=C(Cl)c3cc(OC)c(OC)cc3C2)cc1OC |  | > 100 µM | > 100 µM |  | > 100 µM | > 100 µM | > 100 µM | > 100 µM |  |  |  |  |  |  |  |  |  |  | 
O=S1(=O)OCCCOS(=O)(=O)C1(Br)Br | > 100 µM | > 100 µM | > 100 µM | > 100 µM | > 100 µM | > 100 µM | > 100 µM | > 100 µM | > 100 µM |  |  |  |  |  |  |  |  |  | 
O=C(CC(c1ccccc1)C(C(=O)c1ccncc1)C(CC(=O)c1ccncc1)c1ccccc1)c1ccncc1 (stereo not drawn) | > 100 µM | > 100 µM | > 100 µM | > 100 µM | > 100 µM | > 100 µM | > 100 µM | > 100 µM |  |  |  |  |  |  |  |  |  |  | 
Cc1cn([C@@H]2C[C@H](CO)[C@@H]2O)c(=O)[nH]c1=O | > 100 µM | > 100 µM | > 100 µM | > 100 µM | > 100 µM | > 100 µM | > 100 µM | > 100 µM | > 100 µM |  |  |  |  |  |  |  |  |  | 
O=C(CSCC(=O)N/N=C\c1ccccc1F)N/N=C\c1ccccc1F | > 100 µM | > 100 µM | > 100 µM | > 100 µM | > 100 µM | > 100 µM | > 100 µM | > 100 µM | > 100 µM |  |  |  |  |  |  |  |  |  | 
COc1ccc(CCCN2c3ccccc3Sc3ccccc32)cc1 | > 100 µM | > 100 µM | > 100 µM |  | > 100 µM | > 100 µM | > 100 µM | > 100 µM |  |  |  |  |  |  |  |  |  |  | 
O=C(NN1C(=O)C(Cl)C1c1ccccc1Cl)c1ccccc1O (stereo not drawn) |  | > 100 µM | > 100 µM | > 100 µM | > 100 µM |  | > 100 µM | > 100 µM |  |  |  |  |  |  |  |  |  |  | 
Cc1c2oc3c(C)cc(F)c(C(=O)NC4C(=O)NC(C(C)C)C(=O)N5CCCC5C(=O)N(C)CC(=O)N(C)C(C(C)C)C(=O)OC4C)c3nc-2c(C(=O)NC2C(=O)NC(C(C)C)C(=O)N3CCCC3C(=O)N(C)CC(=O)N(C)C(C(C)C)C(=O)OC2C)c(N)c1=O (stereo not drawn) | 3.73 µM | 0.161 µM |  |  |  | 3.77 µM |  | 4.65 µM | 60.6 µM | 0.171 µM | 0.142 µM | 0.0732 µM | 0.458 µM |  |  |  |  |  | 
O=C(/C=C/c1ccccc1)Oc1cccc(Br)c1 | > 100 µM | 52.1 µM |  | > 100 µM | > 100 µM | > 100 µM | > 100 µM | > 100 µM | 47.4 µM |  |  |  |  |  |  |  |  |  | 
COc1cc(/C=C/C(=N\NC(=S)NN)c2sc(NNC(C)=O)nc2C)ccc1O | > 100 µM | > 100 µM | > 100 µM | > 100 µM | > 100 µM | > 100 µM | > 100 µM | > 100 µM | > 100 µM |  |  |  |  |  |  |  |  |  | 
CCN(CC)c1ccc2cc(C(N)=O)c(=Nc3ccc(F)cc3)oc2c1 | > 100 µM | > 100 µM | > 100 µM | > 100 µM | > 100 µM | > 100 µM | > 100 µM | > 100 µM | > 100 µM |  |  |  |  |  |  |  |  |  | 
COc1cccc([C@@H]2CC(=O)c3cc4c(cc3N2)OCO4)c1 | > 100 µM |  |  | > 100 µM | > 100 µM | > 100 µM | > 100 µM | > 100 µM | > 100 µM |  |  |  |  |  |  |  |  |  | 
Cc1ccc2c(=O)cc(Cc3csc4ccccc34)[nH]c2n1 | > 100 µM |  | 62.1 µM | > 100 µM | > 100 µM | > 100 µM | > 100 µM | 80.1 µM | > 100 µM |  |  |  |  |  |  |  |  |  | 
O=C1c2cccnc2-c2nccc3c2c1nc1ccc(Br)cc13 | 0.156 µM | 0.0377 µM | 0.338 µM | 0.0586 µM | 0.223 µM | 0.17 µM | 0.169 µM | 0.202 µM | < 0.03 µM |  |  |  |  |  |  |  |  |  | 
CO[C@]12CC(=O)C3(C(C[C@H]4CC5CC[C@H]6C[C@@H](OC(C)=O)CC[C@]6(OC(C)=O)C5C[C@@]43C)C1)C1C[C@H]3[C@@H]4CC[C@H]5C[C@@H](OC(C)=O)CC[C@]5(OC(C)=O)[C@H]4CC[C@]3(C)C12 (stereo partly drawn) | > 100 µM |  | > 100 µM | > 100 µM | > 100 µM | > 100 µM | > 100 µM | > 100 µM | > 100 µM |  |  |  |  |  |  |  |  |  | 
N#Cc1c(N2CCCC2)nsc1Nc1ccc(F)cc1 | > 100 µM | > 100 µM | > 100 µM | > 100 µM | > 100 µM | > 100 µM | > 100 µM |  |  |  |  |  |  |  |  |  |  |  | 
O=P(O)(O)CN1CCNCCN(CP(=O)(O)O)CCN(CP(=O)(O)O)CCNCC1 | 86100 µM | 55.8 µM | 44.1 µM |  |  |  |  |  |  |  |  |  |  | 48900 µM | inactive | 99900 µM | inactive | inactive | inactive

— PubChem BioAssay (NCI)
